Here are results for three compounds from patent US12311014B1, “Composition and use thereof for the treatment of equine gastric ulcer syndrome” (priority 2024, dated 2025).

Data set [1] concerns mammalian cells. Conditions: cell culture studies; cited from earlier work.
Data set [2] relates to piglets weaned at 28 days (control of E. coli infection). Nature of the data set: Pig trial 1: weight gain and feed intake of weaned piglets. The data set is classed as in vivo, pigs. The procedure:
A trial was conducted to determine the potential impact of the compositions of the invention for controlling E. coli infection and improving animal health.
Piglets were weaned at 28 days of age with an average weight of 8.6±0.98 kg. At weaning (i.e. no longer suckling), litters were homogenized to a maximum of 14 pigs and assigned to either a control group (no additional feed component), to a first test group to which the composition of the invention was administered, and to a second test group to which zinc oxide was administered. Pigs were fed starter diets up until day 14 of the trial when the trial completed.
Group weight and feed intake was recorded at day 0, 7 and 14 of the experiment.
The composition of the invention comprised: 10 mg LPO and 8 mg KI and excipients. The composition was formulated as a powder. The composition was administered once daily with feed for 14 days. […] Zinc oxide was administered to the second test group at a concentration of 3000 ppm i.e. 3 g/kg of feed.

Data set [3] deals with pigs at weaning (scour/diarrhea). Nature of the data set: Pig trial 2: 240 weaned pigs, weight, health and cleanliness scores. The data set is classed as in vivo. On the procedure: A further study involving 240 pigs was carried out with a higher dose of lactoperoxidase and potassium iodide. The pigs were weighed and allocated to the trail at weaning (approximately 28 days of age).
The groups were homogenized with respect to group total weight and gender profile, and each group was divided into pens, with 5 pigs per pen. […] The pigs were weighed individually at the start of the study on day 7 and on day 14. Pigs were assessed each morning for general health, faeces was examined—to check for scour/diarrhea, and pigs per give a cleanliness score

The nature of data set [4]: Lactoperoxidase ABTS activity (UV-vis). The data set is classed as biochemical. Conditions: 1000 units = amount of enzyme that oxidises 1 mmol of ABTS in 5 minutes at pH 6.0 and 35° C. The procedure: Lactoperoxidase was isolated from bovine milk. The lactoperoxidase activity (U/mg) was greater than 1000 units ABTS activity (determined using UV-vis). 1000 units ABTS activity (U): amount of enzyme that oxidises 1 mmol of ABTS in 5 minutes at pH 6.0 and 35° C. ABTS: 2,2′-azinobis-(3-ethyl benzthiazoline-6-sulphonic acid).

Regarding `OO` [hydrogen peroxide], the cytotoxic concentrations in data set [1] was 0.05 to 0.58 mmol/L.
On to `[O]=[Zn]` [zinc oxide], for which the Average body weight in data set [2] (Day 0 (baseline at weaning)) was determined as 8.5 kg; in data set [2] (Day 7, Test 1: 10 mg LPO and 8 mg KI daily, Test 2: zinc oxide 3000 ppm in feed), 10.1 kg; in data set [2] (Day 14, Test 1: 10 mg LPO and 8 mg KI daily, Test 2: zinc oxide 3000 ppm in feed), 13.7 kg. Further, in data set [2] (piglets weaned at 28 days, Test 1: 10 mg LPO and 8 mg KI powder once daily with feed for 14 days, Test 2: zinc oxide 3000 ppm in feed), the “Average daily gain day 14” value came out at 369 g/day. In data set [2] (piglets weaned at 28 days, Test 1: 10 mg LPO and 8 mg KI powder once daily, Test 2: zinc oxide 3000 ppm in feed), the “Average daily feed intake day 14” value was found to be 455 g/day. Also, the “pig weight at the end of the 14 days” value in data set [3] (PC: 3100 ppm ZnO diet, test: 20 mg LPO and 20 mg KI per day, NC diet approximately 0.8 kg less than PC) is recorded as “heaviest”. In data set [3] (score 1 (clean) to 4 (heavily contaminated with faecal material), 14 day study), the cleanliness score result is “lowest cleanliness score”.
Regarding Lactoperoxidase, the “lactoperoxidase activity (units ABTS activity)” value in data set [4] is “greater than 1000 U/mg”.
